Experimental data: patent EP1673349B1, “BENZIMIDAZOLE DERIVATIVES: PREPARATION AND PHARMACEUTICAL APPLICATIONS” (priority 2003, dated 2005)
Read-outs that look alike come from different tables or passages of the source. Blank lines part the entries; values can stand above or below the compound they belong to.

Assays:
acetylated H2A = assay: Histone acetylation assay by immuno-blotting, acetylated H2A; format: cell-based, human; conditions: Colo205 cells, 0.1, 1, 5 and 10 µM, 24 h, western blot
Procedure: (§1) A hallmark of histone deacetylase (HDAC) inhibition is the increase in the acetylation level of histones. Histone acetylation, including H3, H4 and H2A can be detected by immuno-blotting (westem-blot). Colo205 cells, approximately 1.5 x10^6 cells/ 10 cm dish, were seeded in the previously described medium, cultivated for 24 h and subsequently treated with HDAC inhibitory agents at 0.1, 1; 5 and 10 µM final concentration. After 24 h, cells were harvested and lysed according to the instruction from Sigma Mammalian Cell Lysis Kit. The protein concentration was quantified using BCA method (Sigma Pte Ltd). The protein lysate was separated using 4-12% bis-tris SDS-PAGE gel (Invitrogen Pte Ltd) and was transferred onto PVDF membrane (BioRad Pte Ltd). The membrane was probed separately using primary antibody specific for acetylated H3, acetylated H4 or acetylated H2A (Upstate Pte Ltd). The detection antibody, goat anti rabbit antibody conjugated with HRP was used according to the manufacturing instruction (Pierce Pte Ltd). After removing the detection antibody from the membrane, an enhanced chemiluminescent substrate for detection of HRP (Pierce Pte Ltd) was added onto the membrane. After removing the substrate, the membrane was exposed to an X-ray film (Kodak) for 1 sec - 20 mins. The X-ray film was developed using the X-ray film processor. The density of each band observed on the developed film could be analysed using UVP Bioimaging software (UVP, Inc, Upland, CA). The values were then normalized against the density of actin in the corresponding samples to obtain the expression of the protein.

acetylated H4 = assay: Histone acetylation assay by immuno-blotting, acetylated H4; format: cell-based, human; conditions: Colo205 cells, 0.1, 1, 5 and 10 µM, 24 h, western blot
Procedure: as §1

MDA-MB435 = assay: Cell-based proliferation assay (cyquant), MDA-MB435; set-up: species or system human;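 note: GI50 taken from dose–response curves over a range of compound concentrations, with cell growth quantified by the CyQUANT proliferation assay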
Procedure: (§2) Human colon cancer cell lines (Colo205 and HCT116), human breast cancer cell lines (MDA-MB435 and MDA-MB231), and human lung cancer cell line (A549) were obtained from ATCC. […] MDA-MB435 cells were cultivated in DMEM containing 2 mM L-Glutamine, 5% FBS. HCT116 cells were cultivated in IMEM containing 2 mM L-Glutamine, 5% FBS. A549 and Colo205 cells were seeded in 96-wells plate at 2000 and 5000 cells per well respectively. MDA-MB435, HCT116, MDA-MB231 cells were seeded in 96-wells plate at 6000 cells per well. The plates were incubated at 37°C, 5% CO2, for 24 h. Cells, were treated with compounds at various concentration for 96 h. Cell growth was then monitored using cyquant cell proliferation assay (Invitrogen Pte Ltd). Dose response curves were plotted to determine GI50 values for the compounds using XL-fist.

Colo205 = assay: Cell-based proliferation assay (cyquant), Colo205; set-up: species or system human;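 note: Colo205 cells exposed for 96 h to a range of compound concentrations, growth read by CyQUANT, GI50 taken from plotted dose-response curves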
Procedure: as §2

acetylated H3 = assay: Histone acetylation assay by immuno-blotting, acetylated H3; format: cell-based, human; conditions: Colo205 cells, 0.1, 1, 5 and 10 µM, 24 h, western blot
Procedure: as §1

HDAC8 enzyme = assay: In vitro HDAC assay (BIOMOL fluorescent-based HDAC activity assay), HDAC8; format: biochemical, human
Procedure: (§3) Expression of GST-HDAC1 or HTGST-HDAC8 was done by infecting SF9 cells (Invitrogen Pte Ltd) with pDEST20-HDAC1 or pFASTBAC-GST-HDAC8 baculovirus at MOI=1 for 48 h. Soluble cell lysate was incubated with pre-equilibrated Glutathione Sepharose 4B beads (Amersham) at 4°C for 2 h. The beads were washed with PBS buffer for 3 times. The GST-HDAC1 protein or GST-HDAC8 protein was eluted by elution buffer containing 50 mM Tris, pH8.0, 150mM NaCl, 1% Triton X-100 and 10mM or 20mM reduced Glutathione. The purified GST-HDAC1 protein or purified GST-HDAC8 protein was dialyzed with HDAC storage buffer containing 10mM Tris, pH7.5, 100mM NaCl and 3mM MgCl2. 20% Glycerol was added to purified GST-HDAC1 protein or purified GST-HDAC8 before storage at -80°C.

HDAC3 = assay: In vitro HDAC assay, HDAC3; format: biochemical; conditions: Table 5; Free base
Procedure: The assay has been carried, out in 96 well format and the BIOMOL fluorescent-based HDAC activity assay has been applied. […] Flur de lys Developer was added and the reaction was incubated for 10 min. Briefly, deacetylation of the substrate sensitizes it to the developer, which then generates a fluorophore (symbol). The fluorophore is excited with 360 nm light and the emitted light (460 nm) is detected on a fluorometric plate reader (Tecan Ultra Microplate detection system, Tecan Group Ltd.).
The analytical software, Prism 3.0 has been used to generate IC50 from a series of data.

MDA-MB231 = assay: Cell-based proliferation assay (cyquant), MDA-MB231; conditions: Homo sapiens, MDA-MB-231; Table 5; Free base
Procedure: as §2

HCT116 = assay: Cell-based proliferation assay (cyquant), HCT116; conditions: Homo sapiens, HCT-116; Table 5; Free base
Procedure: as §2

A549 = assay: Cell-based proliferation assay (cyquant), A549; conditions: Homo sapiens, Table 5, Free base
Procedure: as §2

HDAC1 enzyme = HDAC1 enzyme (Homo sapiens, UniProt Q13547); assay: In vitro HDAC assay (BIOMOL fluorescent-based HDAC activity assay), HDAC1; format: biochemical
HDAC1 enzyme, sequence (Q13547 whole entry): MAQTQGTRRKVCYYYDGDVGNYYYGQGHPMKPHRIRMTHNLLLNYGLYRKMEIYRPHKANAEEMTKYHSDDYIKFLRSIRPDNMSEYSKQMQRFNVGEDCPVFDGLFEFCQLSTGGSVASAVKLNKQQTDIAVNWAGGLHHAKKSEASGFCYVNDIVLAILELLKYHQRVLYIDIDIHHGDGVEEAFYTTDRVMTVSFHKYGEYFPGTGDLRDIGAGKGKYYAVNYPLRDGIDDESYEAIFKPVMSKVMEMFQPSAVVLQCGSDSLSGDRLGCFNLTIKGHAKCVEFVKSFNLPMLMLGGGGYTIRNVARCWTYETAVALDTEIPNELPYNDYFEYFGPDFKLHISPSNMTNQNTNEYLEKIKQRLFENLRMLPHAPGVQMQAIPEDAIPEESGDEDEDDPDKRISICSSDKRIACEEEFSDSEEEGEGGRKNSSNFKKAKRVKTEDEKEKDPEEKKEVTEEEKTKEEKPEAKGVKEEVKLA
Procedure: as §3

[1] = Homo sapiens, MDA-MB-435, Table 4, 96 h treatment
[2] = Homo sapiens, COLO 205, 96 h, Table 4, 96 h treatment
[3] = Table 3, read-out: HDAC8 Enzyme Activity IC50
[4] = Homo sapiens, MDA-MB-435, Table 5, Free base
[5] = Homo sapiens, COLO 205, Table 5, Free base
[6] = Homo sapiens, COLO 205, Table 5, Salt of CF3COOH
[7] = Homo sapiens, COLO 205, Table 4, 96 h treatment
[8] = Table 5, Free base, read-out: IC50 (HDAC8)
[9] = Table 3, read-out: HDAC1 Enzyme Activity IC50
[10] = Table 5, Salt of CF3COOH, read-out: IC50 (HDAC1)

- IC50 (HDAC3): 64 nM
- GI50 (MDA-MB435; [1]): 320 nM
- GI50 (MDA-MB435; [4]): 300 nM
- GI50 (Colo205; [2]): 430 nM
- GI50 (Colo205; [5]): 400 nM
- GI50 (Colo205; [6]): 400 nM
- GI50 (MDA-MB231): 500 nM
- GI50 (HCT116): 400 nM
- GI50 (A549): 300 nM
- IC50 (HDAC8 enzyme; [3]): 355 nM
Structure (SMILES): COc1cc(Cn2c(CCc3ccccc3)nc3cc(/C=C/C(=O)NO)ccc32)cc(OC)c1OC [Compound 2, N-Hydroxy-3-[1-(3,4,5-trimethoxybenzyl)-2-(2-phenyl-ethyl)-1H-benzimidazol-5-yl]-acrylamide]
- Histone acetylation activities Histone-2A (acetylated H2A): Active
- Histone acetylation activities Histone-4 (acetylated H4): Active
- Histone acetylation activities Histone-3 (acetylated H3): Active

- GI50 (MDA-MB435; [1]): 1070 nM
- GI50 (Colo205; [7]): 380 nM
- IC50 (HDAC8 enzyme; [3]): 202 nM
Structure (SMILES): O=C(/C=C/c1ccc2c(c1)nc(CCc1ccccc1)n2Cc1cccnc1)NO [Compound 12, N-Hydroxy-3-[1-(3-pyridylmethyl)-2-(2-phenyl-ethyl)-1H-benzimidazol-5-yl]-acrylamide]
- Histone acetylation activities Histone-4 (acetylated H4): Active
- Histone acetylation activities Histone-3 (acetylated H3): Active

- GI50 (MDA-MB435; [1]): 5990 nM
- GI50 (Colo205; [2]): 3070 nM
- IC50 (HDAC8 enzyme; [3]): 251 nM
Structure (SMILES): O=C(/C=C/c1ccc2c(c1)nc(CCc1ccccc1)n2CCCO)NO [Compound 14, N-Hydroxy-3-[1-(3-hydroxy-propyl)-2-phenethyl-1H-benzimidazol-5-yl]-acrylamide]

- GI50 (MDA-MB435; [1]): 560 nM
- GI50 (MDA-MB435; [4]): 600 nM
- GI50 (Colo205; [2]): 60 nM
- GI50 (Colo205; [5]): 60 nM
- GI50 (Colo205; [6]): 110 nM
- GI50 (Colo205; Homo sapiens, COLO 205, Table 5, Salt of HCl): 60 nM
- GI50 (Colo205; Homo sapiens, COLO 205, Table 5, Salt of Methane sulfonic acid): 40 nM
- GI50 (MDA-MB231): 700 nM
- GI50 (HCT116): 300 nM
- GI50 (A549): 200 nM
- IC50 (HDAC8 enzyme; [3]): 353 nM
- IC50 (HDAC8 enzyme; [8]): 353 nM
- IC50 (HDAC1 enzyme; [9]): 24 nM
- IC50 (HDAC1 enzyme; [10]): 24 nM
Structure (SMILES): CN(C)CC(C)(C)Cn1c(CCc2ccccc2)nc2cc(/C=C/C(=O)NO)ccc21 [Compound 17, N-Hydroxy-3-[1-(3-Dimethylamino-2,2-dimethyl-proppyl)-2-phenethyl-1H-benzimidazol-5-yl]-acrylamide]
- Histone acetylation activities Histone-2A (acetylated H2A): Active
- Histone acetylation activities Histone-4 (acetylated H4): Active
- Histone acetylation activities Histone-3 (acetylated H3): Active

- GI50 (MDA-MB435; [1]): 3440 nM
- GI50 (Colo205; [7]): 2230 nM
- IC50 (HDAC8 enzyme; [3]): 329 nM
Structure (SMILES): O=C(/C=C/c1ccc2c(c1)nc(CCc1ccccc1)n2CCc1cccnc1)NO [Compound 27, N-Hydroxy-3-(2-phenethyl-1-(2-pyridin-3-yl-ethyl)-1H-benzimidazol-5-yl]-acrylamide]

- GI50 (MDA-MB435; [1]): 3380 nM
- GI50 (Colo205; [2]): 1540 nM
- IC50 (HDAC8 enzyme; [3]): 1450 nM
Structure (SMILES): O=C(/C=C/c1ccc2c(c1)nc(CCc1ccccc1)n2Cc1ccccc1)NO [Compound 33, N-Hydroxy-3-(1-Benzyl-2-phenethyl-1H-benzimidazol-5-yl)-acrylamide]

Second part, the compound before the results:

Structure (SMILES): CC(Cc1nc2cc(/C=C/C(=O)NO)ccc2n1CCCO)c1ccccc1 (stereo not drawn) [Compound 1, N-Hydroxy-3-[1-(3-hydroxy-propyl)-2-(2-phenyl-propyl)-1H-benzimidazol-5-yl]-acrylamide]
- Histone acetylation activities Histone-2A (acetylated H2A): Active
- Histone acetylation activities Histone-4 (acetylated H4): Active
- GI50 (MDA-MB435; [1]): 1640 nM
- GI50 (Colo205; [2]): 520 nM
- Histone acetylation activities Histone-3 (acetylated H3): Active
- IC50 (HDAC8 enzyme; [3]): 119 nM

Structure (SMILES): COc1cc(-c2nc3cc(/C=C/C(=O)NO)ccc3n2CCCO)ccc1OCc1ccccc1 [Compound 4, N-Hydroxy-3-[2-(4-benzyloxy-3-methoxy-phenyl)-1-(3-hydroxy-propyl)-1H-benzimidazole-5-yl]-acrylamide]
- GI50 (MDA-MB435; [1]): 25700 nM
- GI50 (Colo205; [2]): 29900 nM
- IC50 (HDAC8 enzyme; [3]): 790 nM

Structure (SMILES): O=C(/C=C/c1ccc2c(c1)nc(-c1ccncc1)n2CCCO)NO [Compound 11, N-Hydroxy-3-[1-(3-hydroxy-propyl)-2-(4-pyridyl)-1H-benzimidazol-5-yl]-acrylamide]
- GI50 (MDA-MB435; [1]): > 100000 nM
- GI50 (Colo205; [7]): > 100000 nM
- IC50 (HDAC8 enzyme; [3]): 161 nM

Structure (SMILES): O=C(/C=C/c1ccc2c(c1)nc(-c1ccsc1)n2CCCO)NO [Compound 20, N-Hydroxy-3-[1-(3-hydroxy-propyl)-2-thiophen-3-yl-1H-benzimidazol-5-yl]-acrylamide]
- GI50 (MDA-MB435; [1]): 37200 nM
- GI50 (Colo205; [2]): 30900 nM
- IC50 (HDAC8 enzyme; [3]): 537 nM

Structure (SMILES): CC(C)Cc1nc2cc(/C=C/C(=O)NO)ccc2n1CCCO [Compound 21, N-Hydroxy-3-[1-(3-hydroxy-propyl)-2-isobutyl-1H-benzimidazol-5-yl]-acrylamide]
- GI50 (MDA-MB435; [1]): 30300 nM
- GI50 (Colo205; [2]): 25900 nM
- IC50 (HDAC8 enzyme; [3]): 238 nM

Structure (SMILES): CCCCCCCCc1nc2cc(/C=C/C(=O)NO)ccc2n1CCCO [Compound 23, N-Hydroxy-3-[1-(3-hydroxy-propyl)-2-octyl-1H-benzimidazol-5-yl]-acrylamide]
- GI50 (MDA-MB435; [1]): 3720 nM
- GI50 (Colo205; [2]): 3650 nM
- IC50 (HDAC8 enzyme; [3]): 402 nM

Structure (SMILES): O=C(/C=C/c1ccc2c(c1)nc(CCc1ccccc1)n2CCCN1CCCC1=O)NO [Compound 30, N-Hydroxy-3-{1-[3-(2-oxo-pyrrolidin-1-yl)-propyl]-2-phenethyl-1H-benzimidazol-5-yl}-acrylamide]
- GI50 (MDA-MB435; [1]): 19800 nM
- GI50 (Colo205; [2]): 11400 nM
- IC50 (HDAC8 enzyme; [3]): 724 nM

Structure (SMILES): O=C(/C=C/c1ccc2c(c1)ncn2Cc1ccccc1)NO [Compound 35, N-Hydroxy-3-(1-Benzyl-1H-benzimidazol-5-yl)-acrylamide]
- GI50 (MDA-MB435; [1]): 6760 nM
- GI50 (Colo205; [2]): 1890 nM
- IC50 (HDAC8 enzyme; [3]): 412 nM

Structure (SMILES): CCn1c(C)nc2cc(/C=C/C(=O)NO)ccc21 [Compound 43, N-Hydroxy-3-(1-Ethyl-2-methyl-1H-benzimidazol-5-yl]-acrylamide]
- GI50 (MDA-MB435; [1]): 8620 nM
- GI50 (Colo205; [7]): 9180 nM
- IC50 (HDAC8 enzyme; [3]): 192 nM

Structure (SMILES): COc1cc(Cn2c(CCc3ccccc3)nc3cc(CCC(=O)NO)ccc32)cc(OC)c1OC [Compound 45]
- GI50 (MDA-MB435; Table 4, 96 h treatment): 1900 nM
- GI50 (Colo205; Table 4, 96 h treatment, read-out: GI50 (Colo 205)): 2410 nM
- IC50 (HDAC1 enzyme; [9]): 167 nM

Structure (SMILES): O=C(/C=C/c1ccc2c(c1)nc(CCc1ccccc1)n2CCN1CCCCC1)NO [Compound 67, N-Hydroxy-3-[2-phenethyl-1-(piperidin-1-yl-ethyl)-1H-benzimidazol-5-yl]-acrylamide]
- Histone acetylation activities Histone-2A (acetylated H2A): Active
- IC50 (HDAC3): 56 nM
- Histone acetylation activities Histone-4 (acetylated H4): Active
- GI50 (MDA-MB435; [4]): 190 nM
- GI50 (Colo205; [2]): 80 nM
- GI50 (Colo205; [5]): 90 nM
- GI50 (Colo205; [6]): 90 nM
- GI50 (MDA-MB231): 60 nM
- GI50 (HCT116): 60 nM
- GI50 (A549): 80 nM
- Histone acetylation activities Histone-3 (acetylated H3): Active
- IC50 (HDAC8 enzyme; [8]): 254 nM
- IC50 (HDAC1 enzyme; [10]): 39 nM
